Data on 21 compounds can be found in US20260085062A1, “NOVEL COMPOUNDS AS CK2 INHIBITORS” (Cambridge Enterprise Limited, priority 2022, published 2026).

One test deals with T1, intracellular CK2α (Homo sapiens, UniProt P19784).
T1 construct: host or cells: HCT116 (ATCC CCL-247)
The experiment in a line: Cell-based NanoBRET assay for inhibitor binding to intracellular CK2α. The settings on record: HCT116 cells transiently transfected with CSNK2A2-NanoLuc fusion vector; Tracer K-5; 2 h; read-out: Assay 3: NanoBRET ™ assay for binding to intracellular CK2α. In a few lines: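 Apparent affinity came from BRET ratio (acceptor/donor ×1,000), with donor read at 450 nm and acceptor at 610 or 630 nm. Compounds competed off a tracer added at fixed concentration to cells carrying a NanoLuc-CK2α fusion.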
On the technique in general: In BRET a luciferase serves as donor, and the signal depends on an acceptor being close.

Another test has as its target T2, CLK2 (Homo sapiens, UniProt P49760).
T2 construct: purchased Carna Biosciences 04-127
In words: Biochemical assay for inhibitors of CLK2 kinase activity (ADP-Glo). The settings on record: 20 nM CLK2, 50 μM peptide substrate, 100 μM ATP, read-out: Assay 2: CLK2 Enzyme IC50. (In general: In ADP-Glo the light output rises with the ADP produced.)

The target of a further test is T3, CK2α (Homo sapiens, UniProt P68400).
T3 construct: CK2α (residues 2-329) was produced in Escherichia coli BL21 (DE3) for kinase activity screening; His6 (N, cleaved yes); made in house; host or cells: Escherichia coli BL21 (DE3)
T3 sequence (P68400 2-329): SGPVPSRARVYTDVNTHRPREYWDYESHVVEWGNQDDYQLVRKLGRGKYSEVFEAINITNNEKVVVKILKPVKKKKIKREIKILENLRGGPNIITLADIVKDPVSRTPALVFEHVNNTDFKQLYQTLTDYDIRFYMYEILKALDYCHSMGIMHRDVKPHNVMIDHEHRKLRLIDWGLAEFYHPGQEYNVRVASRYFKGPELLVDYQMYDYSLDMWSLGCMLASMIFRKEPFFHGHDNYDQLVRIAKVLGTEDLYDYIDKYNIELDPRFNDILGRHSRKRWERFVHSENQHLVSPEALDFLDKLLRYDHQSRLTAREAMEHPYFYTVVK
In words: Biochemical assay for inhibitors of CK2α kinase activity (ADP-Glo). The settings on record: 0.2 nM CK2α, 50 μM peptide substrate, 15 μM ATP, read-out: Assay 1: CK2α Enzyme IC50.

Each structure is given as a SMILES string. Bounds are passed on as bounds.

T1 sequence (P19784 whole entry): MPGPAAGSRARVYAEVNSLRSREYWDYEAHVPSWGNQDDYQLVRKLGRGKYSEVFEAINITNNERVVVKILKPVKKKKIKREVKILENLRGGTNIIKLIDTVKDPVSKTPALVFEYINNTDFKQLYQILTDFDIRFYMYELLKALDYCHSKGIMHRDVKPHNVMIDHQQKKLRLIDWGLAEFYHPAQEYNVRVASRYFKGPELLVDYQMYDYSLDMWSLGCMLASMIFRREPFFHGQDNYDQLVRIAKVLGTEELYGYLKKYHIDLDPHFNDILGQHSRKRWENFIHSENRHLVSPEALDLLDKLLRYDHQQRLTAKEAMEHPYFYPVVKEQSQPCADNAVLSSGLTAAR
T2 sequence (P49760 whole entry): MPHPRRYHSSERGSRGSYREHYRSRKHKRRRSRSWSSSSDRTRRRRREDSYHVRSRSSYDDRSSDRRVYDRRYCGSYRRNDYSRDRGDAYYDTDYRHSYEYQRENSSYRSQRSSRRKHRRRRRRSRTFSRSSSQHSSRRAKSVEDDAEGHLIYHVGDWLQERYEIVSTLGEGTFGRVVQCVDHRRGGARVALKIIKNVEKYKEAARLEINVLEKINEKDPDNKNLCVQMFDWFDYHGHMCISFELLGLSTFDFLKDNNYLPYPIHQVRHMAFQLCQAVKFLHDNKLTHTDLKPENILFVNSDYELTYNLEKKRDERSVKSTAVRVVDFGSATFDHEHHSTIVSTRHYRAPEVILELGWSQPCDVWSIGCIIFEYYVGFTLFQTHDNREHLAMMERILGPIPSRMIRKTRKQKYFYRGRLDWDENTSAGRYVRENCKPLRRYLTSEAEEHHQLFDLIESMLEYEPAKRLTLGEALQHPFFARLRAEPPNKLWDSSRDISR

On to `FC(F)(F)Oc1ccc(CNCCCCOC2CN(c3cc(-c4ccnnc4)cc4[nH]nnc34)C2)cc1Cl` [Example 150, N-(3-chloro-4-(trifluoromethoxy)benzyl)-4-((1-(6-(pyridazin-4-yl)-1H-benzo[d][1,2,3]triazol-4-yl)azetidin-3-yl)oxy)butan-1-amine], for which the results for the IC50 at intracellular CK2α, at CLK2 and at CK2α were 39300 nM, 17700 nM and 338 nM, respectively.

In the case of `FC(F)(F)c1ccc2[nH]c(CNCCCCOCCNc3cc(-c4ccncn4)cc4[nH]ncc34)cc2c1` [Example 95, 6-(pyrimidin-4-yl)-N-(2-(4-(((5-(trifluoromethyl)-1H-indol-2-yl)methyl)amino)butoxy)ethyl)-1H-indazol-4-amine], the IC50 amounted to 336 nM at intracellular CK2α, 203 nM at CLK2 and 6.56 nM at CK2α.

Consider `O=C(CCNCc1ccc(OC(F)(F)F)c(Cl)c1)NCCCNc1cc(-c2ncon2)cc2[nH]ncc12` [Example 189, N-(3-((6-(1,2,4-oxadiazol-3-yl)-1H-indazol-4-yl)amino)propyl)-3-((3-chloro-4-(trifluoromethoxy)benzyl)amino)propanamide], for which the IC50 on intracellular CK2α is 1630 nM; on CLK2, 3500 nM; on CK2α, 19.2 nM.

Take `O=C(CCNCc1cc2ccc(Cl)cc2[nH]1)NCCCNc1cc(-n2cnnc2)cc2[nH]ncc12` [Example 37, N-(3-((6-(4H-1,2,4-triazol-4-yl)-1H-indazol-4-yl)amino)propyl)-3-(((6-chloro-1H-indol-2-yl)methyl)amino)propanamide]: the values for the IC50 on intracellular CK2α, on CLK2 and at CK2α were 960 nM, 30.7 nM and 0.78 nM, respectively.

With `O=C(CCNCc1ccc(OC(F)(F)F)c(Cl)c1)NCCCNc1cc(-n2cnnc2)cc2cn[nH]c12` [Example 83, N-(3-((5-(4H-1,2,4-triazol-4-yl)-1H-indazol-7-yl)amino)propyl)-3-((3-chloro-4-(trifluoromethoxy)benzyl)amino)propanamide], the IC50 at intracellular CK2α was 2260 nM; at CLK2, 1090 nM; on CK2α it was 2.56 nM.

Consider `O=C(CCNCc1ccc(OC(F)(F)F)c(Cl)c1)NCCCNc1cc(-c2ccncc2Cl)cc2[nH]ncc12` [Example 169, 3-((3-chloro-4-(trifluoromethoxy)benzyl)amino)-N-(3-((6-(3-chloropyridin-4-yl)-1H-indazol-4-yl)amino)propyl)propanamide], for which the IC50 came to 6510 nM at intracellular CK2α, 5680 nM on CLK2 and 79.2 nM at CK2α.

Regarding `FC(F)(F)c1ccc2[nH]c(CNCCCCOC3CN(c4cc(-n5cnnc5)cc5[nH]ncc45)C3)cc2c1` [Example 128, 4-((1-(6-(4H-1,2,4-triazol-4-yl)-1H-indazol-4-yl)azetidin-3-yl)oxy)-N-((5-(trifluoromethyl)-1H-indol-2-yl)methyl)butan-1-amine], the IC50 at intracellular CK2α is over 50000 nM; at CLK2, 187 nM; at CK2α, 3.96 nM.

With `c1cc(-c2cc(NCCOCCCCNCc3cc4cc(OC5CCC5)ccc4[nH]3)c3cn[nH]c3c2)cnn1` [Example 57, N-(2-(4-(((5-cyclobutoxy-1H-indol-2-yl)methyl)amino)butoxy)ethyl)-6-(pyridazin-4-yl)-1H-indazol-4-amine], the IC50 on intracellular CK2α is 69.8 nM; at CLK2, 781 nM; at CK2α, 0.6 nM.

As to `Fc1cc(CNCCCCOCCNCc2cc(-n3cnnc3)cc3[nH]ncc23)cc(F)c1OC(F)(F)F` [Example 171, 4-(2-(((6-(4H-1,2,4-triazol-4-yl)-1H-indazol-4-yl)methyl)amino)ethoxy)-N-(3,5-difluoro-4-(trifluoromethoxy)benzyl)butan-1-amine], the IC50 at intracellular CK2α worked out at 4900 nM; at CLK2, 23300 nM; on CK2α, 45.3 nM.

Regarding `COc1n[nH]cc1-c1cc(NCCCNC(=O)CCNCc2ccc(-c3ccccc3)c(Cl)c2)c2cn[nH]c2c1` [Example 76, 3-(((2-chloro-[1,1′-biphenyl]-4-yl)methyl)amino)-N-(3-((6-(3-methoxy-1H-pyrazol-4-yl)-1H-indazol-4-yl)amino)propyl)propanamide], the IC50 at intracellular CK2α stood at 735 nM; at CLK2, 18.6 nM; at CK2α it was 2.64 nM.

As to `N#Cc1cc(CNCCC(=O)NCCCNc2cc(-n3cnnc3)cc3[nH]ncc23)ccc1C1CC1` [Example 45, N-(3-((6-(4H-1,2,4-triazol-4-yl)-1H-indazol-4-yl)amino)propyl)-3-((3-cyano-4-cyclopropylbenzyl)amino)propanamide], the IC50 at intracellular CK2α was 6380 nM; at CLK2, 123 nM; at CK2α, 0.95 nM.

For `O=C(CCNCc1ccc(-c2ccccc2)c(Cl)c1)NCCCNc1cc(-c2cncnc2)cc2[nH]ncc12` [Example 73, 3-(((2-chloro-[1,1′-biphenyl]-4-yl)methyl)amino)-N-(3-((6-(pyrimidin-5-yl)-1H-indazol-4-yl)amino)propyl)propanamide], the IC50 on intracellular CK2α worked out at 743 nM; at CLK2, 1960 nM; on CK2α, 44.3 nM.

For the compound `O=C(O)CCc1cc(NCCOCCCCNCc2cc(F)c(OC(F)(F)F)c(F)c2)c2cn[nH]c2c1` [Example 201, 3-(4-((2-(4-((3,5-difluoro-4-(trifluoromethoxy)benzyl)amino)butoxy)ethyl)amino)-1H-indazol-6-yl)propanoic acid], the IC50 on intracellular CK2α was determined as 142 nM; on CLK2 it was 7830 nM; at CK2α, 0.87 nM.

Consider `OCc1cc(Cl)cc(CNCCCCOC2CN(c3cc(-n4cnnc4)cc4[nH]ncc34)C2)c1` [Example 130, (3-(((4-((1-(6-(4H-1,2,4-triazol-4-yl)-1H-indazol-4-yl)azetidin-3-yl)oxy)butyl)amino)methyl)-5-chlorophenyl)methanol], for which the figures for the IC50 on intracellular CK2α, on CLK2 and on CK2α were 15400 nM, 326 nM and 106 nM, respectively.

In the case of `Cc1nccn1-c1cc(NCCCNC(=O)CCNCc2ccc(-c3ccccc3)c(Cl)c2)c2cn[nH]c2c1` [Example 80, 3-(((2-chloro-[1,1′-biphenyl]-4-yl)methyl)amino)-N-(3-((6-(2-methyl-1H-imidazol-1-yl)-1H-indazol-4-yl)amino)propyl)propanamide], the IC50 came out at 8050 nM on intracellular CK2α, 1920 nM at CLK2 and 46.7 nM on CK2α.

Turning to `CNc1n[nH]c2cc(-n3cnnc3)cc(NCCOCCCCNCc3cc(F)c(OC(F)(F)F)c(F)c3)c12` [Example 190, N4-(2-(4-((3,5-difluoro-4-(trifluoromethoxy)benzyl)amino)butoxy)ethyl)-N3-methyl-6-(4H-1,2,4-triazol-4-yl)-1H-indazole-3,4-diamine], the values for the IC50 on intracellular CK2α, at CLK2 and at CK2α were 74 nM, 1100 nM and 1.45 nM, respectively.

On to `C[C@@H](CCCOCCNc1cc(-c2cnns2)cc2[nH]ncc12)NCc1cc(CO)cc(OC(F)(F)F)c1` [Example 207, (S)-(3-(((5-(2-((6-(1,2,3-thiadiazol-5-yl)-1H-indazol-4-yl)amino)ethoxy)pentan-2-yl)amino)methyl)-5-(trifluoromethoxy)phenyl)methanol], for which the IC50 at intracellular CK2α stood at 8.66 nM; on CLK2 it was 240 nM; at CK2α, 1.71 nM.

As to `Cc1cc(CC#N)cc(CNCCCCOC2CN(c3cc(-n4cnnc4)cc4[nH]ncc34)C2)c1` [Example 106, 2-(3-(((4-((1-(6-(4H-12,4-triazol-4-yl)-1H-indazol-4-yl)azetidin-3-yl)oxy)butyl)amino)methyl)-5-methylphenyl)acetonitrile], the results for the IC50 on intracellular CK2α, at CLK2 and on CK2α were 26600 nM, 368 nM and 41.7 nM, respectively.

Consider `OCc1cc(Cl)cc(CNCCCCOC2CN(c3cc(-c4cnoc4)cc4[nH]ncc34)C2)c1` [Example 136, (3-chloro-5-(((4-((1-(6-(isoxazol-4-yl)-1H-indazol-4-yl)azetidin-3-yl)oxy)butyl)amino)methyl)phenyl)methanol], for which the IC50 is 3350 nM on intracellular CK2α, 124 nM on CLK2 and 33.1 nM on CK2α.

As for `O=C(CCNCc1ccc(-c2ccccc2)c(Cl)c1)NCCCNc1cc(-c2cn[nH]c2)cc2[nH]ncc12` [Example 3, N-(3-((6-(1H-pyrazol-4-yl)-1H-indazol-4-yl)amino)propyl)-3-(((2-chloro-[1,1′-biphenyl]-4-yl)methyl)amino)propanamide], the IC50 at intracellular CK2α worked out at 135 nM; on CLK2 it was 33.4 nM; on CK2α, 0.77 nM.

Regarding `O=C(CCNCc1ccc(-c2ccccc2)c(Cl)c1)NCCCNc1cc(-c2ccncn2)cc2[nH]ncc12` [Example 75, 3-(((2-chloro-[1,1′-biphenyl]-4-yl)methyl)amino)-N-(3-((6-(pyrimidin-4-yl)-1H-indazol-4-yl)amino)propyl)propanamide], the IC50 on intracellular CK2α stood at 76.5 nM; at CLK2, 404 nM; on CK2α, 0.89 nM.
